Where two headings read alike, the source gives them in different places.
Tests used:
5-HT6 receptor [1] = target: T1, 5-HT6 receptor (Homo sapiens, UniProt P50406); assay: In vitro affinity for human 5-HT6 receptors ([3H]-LSD binding, CHO cell membranes); design: host or cells: CHO/Gα16/mtAEQ/h5HT6-A1 cells; settings: read-out: 5-HT6 pKi (converted)
Description: In Vitro Affinity for Human 5-HT6 Receptors
Affinity for human 5-HT6 receptors was measured in a membrane preparation of CHO-cells transfected with human 5-HT6 receptors by binding studies using [^3H]-N-Methyl-Lysergic acid diethylamide ([^3H]-LSD) as ligand. […] CHO/Gα16/mtAEQ/h5HT6-A1 cells were grown in T-flasks in CHO-S-SFM II medium (Gibco BRL), supplemented with 1% dialysed FCS, 2 mM L-glutamine, Geneticin 500 μg/ml and Zeocin 200 μg/ml. […] After thawing cells were centrifuged during 3 minutes at 1500 g at 4° C. […] The assay was established so as to achieve steady state conditions and to optimize specific binding. For the 5-HT6 receptor, membranes from 5.10^5 cells were incubated with 5.0 nM [^3H]-LSD at 37° C. for 30 minutes. Nonspecific binding was determined using 10^−5 M serotonin. Assays were terminated by vacuum filtration through glass fibre filters (GF/B) which had been pretreated with 0.5% polyethyleneimine. Total and bound radioactivity was determined by liquid scintillation counting. […] Compounds were tested at a 4 log concentration range; all determinations were performed as triplicates. IC50 values were determined by non-linear regression analysis using Hill equation curve fitting. The inhibition constants (Ki-values) were calculated from the Cheng-Preushoff equation: Ki=IC50:(1+L/Kd) wherein L represents the concentration [^3H]-LSD in the assay, and Kd its affinity for the receptor. Results are expressed as pKi-values, means±SD of at least three separate experiments.

5-HT6 receptor [2] = target: T1, 5-HT6 receptor; assay: In vitro functional activity ((ant)agonism) on human 5-HT6 receptors, CHO-human-5HT6-Aequorin assay; format: cell-based; design: host or cells: CHO AequoScreen recombinant cell line (expresses mitochondrial targeted apo-Aequorin)
Description: Human-5-HT6-Aequorin cells express mitochondrial targeted apo-Aequorin. Cells have to be loaded with coelanterazine, in order to reconstitute active Aequorin. […] This luminescent response is dependent on the agonist concentration. Luminescence is measured using the MicroBeta Jet (Perkin Elmer). Agonistic effects of compounds are expressed as pEC50. […] Compounds were tested at a 5 log concentration range, and 3 independent experiments were performed in duplicate.

in vitro [3] = settings: rat, hepatocytes
in vitro [4] = settings: human, hepatocytes
5-HT6 receptor [5] = target: T1, 5-HT6 receptor; settings: 5-HT6 receptor (Sleight, 1998); cited from earlier work
[6] = Sleight, 1998; cited from earlier work
[7] = [3H]-LSD, membranes of CHO cells with human 5-HT6, comparison table Example 6
[8] = [3H]-LSD, membranes of CHO cells with human 5-HT6, main compound table
[9] = antagonism of 10^-8 M α-methylserotonin induced luminescence, main compound table
[10] = antagonism of 10^-8 M α-methylserotonin induced luminescence, main compound table, read-out: 5-HT6 pA2 (converted)
[11] = antagonism of 10^-8 M α-methylserotonin induced luminescence, comparison table Example 6

T1 sequence (P50406 whole entry): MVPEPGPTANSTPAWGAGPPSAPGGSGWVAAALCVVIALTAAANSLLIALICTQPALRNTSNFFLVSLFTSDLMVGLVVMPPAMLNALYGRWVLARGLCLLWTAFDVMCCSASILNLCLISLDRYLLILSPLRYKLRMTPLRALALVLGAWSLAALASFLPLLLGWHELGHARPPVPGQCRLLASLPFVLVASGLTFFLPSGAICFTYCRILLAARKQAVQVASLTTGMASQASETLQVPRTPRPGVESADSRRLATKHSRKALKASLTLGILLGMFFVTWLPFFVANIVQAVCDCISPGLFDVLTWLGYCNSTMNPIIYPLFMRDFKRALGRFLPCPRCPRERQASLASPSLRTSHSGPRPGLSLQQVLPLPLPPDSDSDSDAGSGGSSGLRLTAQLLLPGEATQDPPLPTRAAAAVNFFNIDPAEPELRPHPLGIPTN

SMILES | Ki (5-HT6 receptor [1]; [8]) [µM] | Kb (5-HT6 receptor [2]; [10]) [µM] | further results
CCN/C(=N\S(=O)(=O)c1ccc(N)c(Cl)c1)N1CC2(C=N1)CCCC2 [Compound 14] | 0.00158 | – | Ki (5-HT6 receptor [1]; [7]): 0.00158 µM; 5-HT6 pA2 (5-HT6 receptor [2]; [9]): 9.0; half-life at 1 μg/ml (in vitro [3]): 17 min; half-life at 1 μg/ml (in vitro [4]): 51 min
CCN/C(=N\S(=O)(=O)c1ccc2c(c1)CCN2)N1CC2(C=N1)CCCCC2 [Compound 59] | 0.00794 | – | –
CCN/C(=N\S(=O)(=O)c1ccc(O)c(Cl)c1)N1CC(CC)C=N1 (stereo not shown) [Compound 26, 3-Chloro-N-[ethylamino-(4-ethyl-4,5-dihydro-pyrazol-1-yl)-methylene]-4-hydroxy-benzenesulfonamide] | 0.01 | – | –
CCN/C(=N\S(=O)(=O)c1ccc2[nH]ccc2c1)N1CC2(C=N1)CCCCC2 [Compound 60] | 0.00316 | – | –
CCN/C(=N\S(=O)(=O)c1ccc(N)c(Cl)c1)N1CC(CC)C=N1 (single isomer, unassigned) [Compound 12] | 0.00158 | 0.001 | –
CCN/C(=N\S(=O)(=O)c1ccc(C(N)=O)cc1)N1CC(CC)C=N1 (stereo not shown) [Compound 43, 4-{[Ethylamino-(4-ethyl-4,5-dihydro-pyrazol-1-yl)-methylene]-sulfamoyl}-benzamide] | – | – | melting point: 146 to 149 °C
CCN/C(=N\S(=O)(=O)c1ccc2c(c1)CCN2)N1CC(CC)C=N1 (stereo not shown) [Compound 16, 2,3-Dihydro-1H-indole-5-sulfonic acid ethylamino-(4-ethyl-4,5-dihydro-pyrazol-1-yl)-methyleneamide] | 0.0126 | 0.01 | –
CCN/C(=N\S(=O)(=O)c1ccc(O)c(Cl)c1)N1CC(C)(C)C=N1 [Compound 27] | 0.0158 | 0.0251 | –
CCN/C(=N\S(=O)(=O)c1ccc(O)cc1)N1CC(CC)C=N1 (single isomer, unassigned) [Compound 20] | 0.002 | 0.001 | –
CN/C(=N\S(=O)(=O)c1ccc(N)cc1)N1CC2(C=N1)CCOCC2 [Compound 8] | 0.2 | 0.158 | –
CCN/C(=N\S(=O)(=O)c1cc(O)cc(Cl)c1)N1CC2(C=N1)CCCC2 [Compound 54] | – | – | melting point: 157 to 158 °C
CNc1cc(NS(=O)(=O)c2ccc(N)cc2)nc(NC)n1 [Ro 04-6790] | – | – | Ki (5-HT6 receptor [5]): 0.05 µM; pharmacokinetics [6]: poor
CCN/C(=N\S(=O)(=O)c1ccc(N)cc1)N1CC2(C=N1)CCOCC2 [Compound 7] | 0.0631 | 0.0251 | –
CCN/C(=N\S(=O)(=O)c1cccc(O)c1)N1CC(C)(C)C=N1 [Compound 36, N-[(4,4-Dimethyl-4,5-dihydro-pyrazol-1-yl)-ethylamino-methylene]-3-hydroxy-benzenesulfonamide] | 0.0501 | 0.0316 | –
CCN/C(=N\S(=O)(=O)c1ccc(O)cc1)N1CC(CC)C=N1 (single isomer, unassigned) [Compound 21] | 0.01 | 0.00631 | –
CCN/C(=N\S(=O)(=O)c1ccc2[nH]ccc2c1)N1CC2(C=N1)CCNCC2 [Compound 49] | – | – | 5-HT6 pA2 (5-HT6 receptor [2]; [9]): 8.8
CCN/C(=N\S(=O)(=O)c1ccc2[nH]ccc2c1)N1CC(CC)C=N1 (stereo not shown) [Compound 18, 1H-Indole-5-sulfonic acid ethylamino-(4-ethyl-4,5-dihydro-pyrazol-1-yl)-methyleneamide] | 0.00398 | – | –
CCN/C(=N\S(=O)(=O)c1ccc(O)cc1)N1CC2(C=N1)CCCCC2 [Compound 24] | – | – | melting point: 140 to 142 °C
CCN/C(=N\S(=O)(=O)c1cc(O)cc(Cl)c1)N1CC(CC)C=N1 (stereo not shown) [Compound 53] | 0.00501 | – | melting point: 146 to 147 °C
CCN/C(=N\S(=O)(=O)c1cccc(Cl)c1)N1CC2(C=N1)CCCC2 [Compound 49 from WO 2008/034863, reference compound] | – | – | Ki (5-HT6 receptor [1]; [7]): 0.00501 µM; 5-HT6 pA2 (5-HT6 receptor [2]; [11]): 8.2
CCN/C(=N\S(=O)(=O)c1ccc(N)cc1)N1CC2(C=N1)CCCC2 [Compound 4, 4-Amino-N-[(2,3-diaza-spiro[4.4]non-3-en-2-yl)-ethylamino-methylene]benzene-sulfonamide] | 0.01 | – | Kb (5-HT6 receptor [2]; 5-HT6 pA2, antagonism of 10^-8 M α-methylserotonin induced luminescence, main compound table): 0.00501 µM; melting point: 141 to 142 °C
CCN/C(=N\S(=O)(=O)c1ccc(O)cc1)N1CC2(C=N1)CCNCC2 [Compound 50] | 0.0126 | – | –
CCN/C(=N\S(=O)(=O)c1ccc(N)cc1)N1CC(CC)C=N1 (single isomer, unassigned) [Compound 2] | 0.01 | – | –

SMILES | Ki (5-HT6 receptor [1]; [8]) [µM] | Kb (5-HT6 receptor [2]; [10]) [µM] | further results
CCN/C(=N\S(=O)(=O)c1ccc(OC)cc1)N1CC(CC)C=N1 (stereo not shown) [Compound 81 from WO 2008/034863, reference compound] | – | – | Ki (5-HT6 receptor [1]; [7]): 0.0631 µM; Kb (5-HT6 receptor [2]; antagonism of 10^-8 M α-methylserotonin induced luminescence, comparison table Example 6, read-out: 5-HT6 pA2 (converted)): 0.1 µM; half-life at 1 μg/ml (in vitro [3]): 16 min; half-life at 1 μg/ml (in vitro [4]): 68 min
CCN/C(=N\S(=O)(=O)c1cccc(Cl)c1)N1CC(C)(C)C=N1 [Compound 33 from WO 2008/034863, reference compound] | – | – | Ki (5-HT6 receptor [1]): 0.0251 µM; 5-HT6 pA2 (5-HT6 receptor [2]; [11]): 7.8
N/C(=N\S(=O)(=O)c1ccc(N)cc1)N1CC2(C=N1)CCOCC2 [Compound 9] | 0.251 | 0.2 | –
CCN/C(=N\S(=O)(=O)c1ccc2c(c1)NCC2)N1CC(CC)C=N1 (stereo not shown) [Compound 33, 2,3-Dihydro-1H-indole-6-sulfonic acid ethylamino-(4-ethyl-4,5-dihydro-pyrazol-1-yl)-methyleneamide] | 0.501 | – | –
CCN/C(=N\S(=O)(=O)c1ccc(N)cc1)N1CC2(C=N1)CCNCC2 [Compound 47, 4-Amino-N-[ethylamino-(2,3,8-triaza-spiro[4.5]dec-3-en-2-yl)-methylene]-benzenesulfonamide] | – | – | 5-HT6 pA2 (5-HT6 receptor [2]; [9]): 8.6
CCN/C(=N\S(=O)(=O)c1ccc(CO)cc1)N1CC2(C=N1)CCCC2 [Compound 40, N-[(2,3-Diaza-spiro[4.4]non-3-en-2-yl)-ethylamino-methylene]-4-hydroxymethyl-benzenesulfonamide] | 0.631 | – | –
CCN/C(=N\S(=O)(=O)c1ccc(N)c(Cl)c1)N1CC(C)(C)C=N1 [Compound 13, 4-Amino-3-chloro-N-[(4,4-dimethyl-4,5-dihydro-pyrazol-1-yl)-ethylamino-methylene]-benzenesulfonamide] | 0.00631 | 0.00316 | Ki (5-HT6 receptor [1]; [7]): 0.00631 µM; half-life at 1 μg/ml (in vitro [3]): 22 min; half-life at 1 μg/ml (in vitro [4]): 700 min
CCN/C(=N\S(=O)(=O)c1cccc(C(N)=O)c1)N1CC(CC)C=N1 (stereo not shown) [Compound 44, 3-{[Ethylamino-(4-ethyl-4,5-dihydro-pyrazol-1-yl)-methylene]-sulfamoyl}-benzamide] | – | – | melting point: 164 to 168 °C
CCN/C(=N\S(=O)(=O)c1cccc(N)c1)N1CC(CC)C=N1 (stereo not shown) [Compound 29] | 0.0631 | 0.1 | –
CCN/C(=N\S(=O)(=O)c1ccc(O)cc1)N1CC(C)(C)C=N1 [Compound 22] | 0.0126 | 0.00501 | Ki (5-HT6 receptor [1]; [7]): 0.0126 µM; half-life at 1 μg/ml (in vitro [3]): 33 min; half-life at 1 μg/ml (in vitro [4]): 1440 min
CNc1cc(NS(=O)(=O)c2ccc(N)cc2)cc(NC)n1 [Ro 63-0563] | – | – | Ki (5-HT6 receptor [5]): 0.012 µM; pharmacokinetics [6]: poor
CCN/C(=N\S(=O)(=O)c1cccc(N)c1)N1CC(C)(C)C=N1 [Compound 30, 3-Amino-N-[(4,4-dimethyl-4,5-dihydro-pyrazol-1-yl)-ethylamino-methylene]-benzenesulfonamide] | 0.251 | 0.126 | –
CCN/C(=N\S(=O)(=O)c1ccc(N)cc1)N1CC(C)(C)C=N1 [Compound 3, 4-Amino-N-[(4,4-dimethyl-4,5-dihydro-pyrazol-1-yl)-ethylamino-methylene]-benzenesulfonamide] | 0.0126 | – | Ki (5-HT6 receptor [1]; [7]): 0.0126 µM; 5-HT6 pA2 (5-HT6 receptor [2]; [9]): 7.6; half-life at 1 μg/ml (in vitro [3]): 71 min; half-life at 1 μg/ml (in vitro [4]): > 1000 min
CCN/C(=N\S(=O)(=O)c1ccc(O)cc1)N1CC(CC)C=N1 (stereo not shown) [Compound 19, N-[Ethylamino-(4-ethyl-4,5-dihydro-pyrazol-1-yl)-methylene]-4-hydroxybenzenesulfonamide] | 0.00316 | 0.00251 | Ki (5-HT6 receptor [1]; [7]): 0.00316 µM; half-life at 1 μg/ml (in vitro [3]): 19 min; half-life at 1 μg/ml (in vitro [4]): 354 min
CCN/C(=N\S(=O)(=O)c1cc(O)cc(Cl)c1)N1CC2(C=N1)CCCCC2 [Compound 55] | – | 0.0002 | –
CCN/C(=N\S(=O)(=O)c1ccc2[nH]ccc2c1)N1CC(C)(C)C=N1 [Compound 57] | 0.00794 | 0.00251 | –
CCN/C(=N\S(=O)(=O)c1cc(O)cc(Cl)c1)N1CC2(C=N1)CCNCC2 [Compound 52] | 0.00794 | – | melting point: 112 to 114 °C
CCN/C(=N\S(=O)(=O)c1ccc(O)cc1)N1N=CCC1c1ccccc1 (stereo not shown) [Compound 25, N-[Ethylamino-(5-phenyl-4,5-dihydro-pyrazol-1-yl)-methylene]-4-hydroxybenzene-sulfonamide] | – | – | melting point: 158 to 160 °C
CCN/C(=N\S(=O)(=O)c1ccc(N)c(Cl)c1)N1CC(CC)C=N1 (single isomer, unassigned) [Compound 11] | 0.001 | 0.000501 | –
N/C(=N\S(=O)(=O)c1ccc(N)cc1)N1CC2(C=N1)CCCC2 [Compound 5] | 0.1 | 0.0794 | –
CCN/C(=N\S(=O)(=O)c1ccc2c(c1)CCN2)N1CC(C)(C)C=N1 [Compound 56] | 0.0158 | – | –
CCN/C(=N\S(=O)(=O)c1ccc(N)cc1)N1CC(CC)C=N1 (single isomer, unassigned) [Compound 1] | 0.00316 | 0.002 | –
